Results reported in patent publication US20260232713A1, “PLECOMACROLIDE DERIVATIVES FOR MHC-I NEF DOWNMODULATION” (priority 2022, published 2026).
“And” between values parts separate entries of the source, which are not always exact repeats. Equal entries are not always repeated. Where two headings read alike, the source gives them in different places.

How the values were obtained:
V-ATPase = molecular target: T1, V-ATPase (Homo sapiens, UniProt P27449); experiment: Lysosomal acidification (Lysotracker mean fluorescence intensity) as indicator of V-ATPase activity in primary CD4+ T cells; format: cell-based
T1 construct: endogenous in cells; host or cells: primary CD4+ T cells (HIV ΔGPE infected) from donor PBMCs
T1 sequence (P27449 whole entry, looked up): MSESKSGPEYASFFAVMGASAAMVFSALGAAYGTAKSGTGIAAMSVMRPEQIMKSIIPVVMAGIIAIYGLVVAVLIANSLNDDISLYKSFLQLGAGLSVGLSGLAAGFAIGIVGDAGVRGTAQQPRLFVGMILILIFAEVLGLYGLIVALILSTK
Method: (§1) Inhibition of HIV-Nef was measured by assessing its capacity to downmodulate MHC-I HLA-A2 on the surface of primary CD4+ T cells 24-hours after treatment with each compound. V-ATPase inhibition was assessed at the same time point using lysosomal acidification as an indicator of V-ATPase activity. This was measured using a flow cytometric assay that quantified Lysotracker mean fluorescence intensity as previously described (Painter et al., 2020). Cell viability was measured at 24-hour and 72-hour time points using a previously described flow cytometric assay (Painter et al., 2020).
(§2) Anonymized leukocytes isolated by apheresis were obtained from New York Blood Center and peripheral blood mononuclear cells (PBMCs) were isolated by Ficoll-Paque Plus (17144002; GE Healthcare) centrifugation using SepMate tubes (85450; StemCell Technologies) according to the manufacturers protocol. […] Then, 20-24 hours post-PHA activation, 15 mL of R10/PHA medium is removed and replaced with 5 mL of R10+100u/mL Recombinant Human IL-2 (202|L010; R&D Systems). 48 hours after IL-2 stimulation, primary CD4^+ T cells were infected via spinoculation with previously described HIV ΔGPE construct.
(§3) 48 hours after spinoculation, cells were pooled and plated in flat bottom 96-well plate. […] Compounds were thawed at room temperature and diluted in R10 medium to 2× starting concentration.
(§4) All ΔGPE infected cells were collected 24 hours after treatment.
(§5) All statistical analyses were performed using GraphPad Prism software. Curves were generated using GraphPad Prism software using [Inhibitor] vs. response with variable slope (four parameters).

primary CD4+ T cells = experiment: in vitro; details: for CC50: read-out: Viability (TC50), mock primary CD4+ T cells, 72 hours after treatment; for Viability:Nef (therapeutic window separating Nef IC50 and TC50): ratio TC50 to Nef IC50
Method: as §1, §2, §3, §4
(§6) All Mock cells were collected 72 hours after treatment.
as §5

in vitro = details: human
Method: as §1, §2, §3, §4, §6, §5

[1] = Lysotracker Red, ΔGPE infected primary CD4+ T cells, 24 hours after treatment, read-out: Lysotracker (V-ATPase IC50, lysosomal neutralization)

IC50 (V-ATPase; [1])	Molecule	CC50 (primary CD4+ T cells)	CC50 at 72 h (in vitro)	Viability:Nef (therapeutic window separating Nef IC50 and TC50) (primary CD4+ T cells)	IC50 (V-ATPase)	CC50 (in vitro)
1720 nM	CC[C@H]1OC(=O)[C@H](C)[C@@H](O)[C@@H](C)C[C@@H](C)C(=O)/C=C/[C@H]1C [10-deoxymethynolide, reference compound]		140 nM	0.39 fold		
	CC=CC1OC(O)(C(C)C(O)C(C)C2OC(=O)C(OC)=CC(C)=CC(C)C(O)C(CC)C(O)C(C)CC(C)=CC=CC2OC)CC(OC2CC(O)C(OC(N)=O)C(C)O2)C1C (stereo not drawn) [Compound 1, Concanamycin A, reference compound]			6.6 fold	1.7 nM	1.3 nM
	CC=CC1OC(O)(C(C)C(O)C(C)C2OC(=O)C(OC)=CC(C)=CC(C)C(O)C(C)C(O)C(C)CC(C)=CC=CC2OC)CC(OC2CC(O)C(OC(N)=O)C(C)O2)C1C (stereo not drawn) [Compound 4, concanamycin B, reference compound]			5 fold and 5.5 fold	26 nM	7 nM
	C/C=C/[C@H]1O[C@@](O)([C@@H](C)[C@H](O)[C@H](C)[C@H]2OC(=O)/C(OC)=C/C(C)=C/[C@@H](C)[C@@H](O)[C@@H](CC)[C@@H](O)[C@H](C)C/C(C)=C/C=C/[C@@H]2OC)C[C@@H](O)[C@@H]1C [Compound 6, Concanamycin F]				5.8 nM	2.9 nM
	C/C=C/[C@H]1O[C@@](O)([C@@H](C)[C@H](O)[C@H](C)[C@H]2OC(=O)/C(OC)=C/C(C)=C/[C@@H](C)[C@@H](O)[C@@H](C)[C@@H](O)[C@H](C)C/C(C)=C/C=C/[C@@H]2OC)C[C@@H](O)[C@@H]1C [Compound 7, Concanamycin X]				38 nM	14 nM
	C/C=C/[C@H]1O[C@@](O)([C@@H](C)[C@H](O)[C@H](C)[C@H]2OC(=O)/C(OC)=C/C(C)=C/[C@@H](C)[C@@H](O)[C@@H](CC)[C@@H](O)[C@H](C)C/C(C)=C/C=C/[C@@H]2OC)C[C@@H](O[C@@H]2C[C@H](OC(=O)CCCC)[C@@H](OC(N)=O)[C@H](C)O2)[C@@H]1C [Compound 8, 3-pentanoate Concanamycin A]			4.8 fold	11 nM	3.5 nM
	C/C=C/[C@H]1O[C@@](O)([C@@H](C)[C@H](O)[C@H](C)[C@H]2OC(=O)/C(OC)=C/C(C)=C/[C@@H](C)[C@@H](O)[C@@H](C)[C@@H](O)[C@H](C)C/C(C)=C/C=C/[C@@H]2OC)C[C@@H](O[C@@H]2C[C@H](OC(=O)CCCC)[C@@H](OC(N)=O)[C@H](C)O2)[C@@H]1C [Compound 9, 3-pentanoate Concanamycin B]			7.9 fold	110 nM	27 nM
	C/C=C/[C@H]1O[C@@](O)([C@@H](C)[C@H](O)[C@H](C)[C@H]2OC(=O)/C(OC)=C/C(C)=C/[C@@H](C)[C@@H](O)[C@@H](C)[C@@H](OC(=O)CCCC)[C@H](C)C/C(C)=C/C=C/[C@@H]2OC)C[C@@H](O[C@@H]2C[C@H](OC(=O)CCCC)[C@@H](OC(N)=O)[C@H](C)O2)[C@@H]1C [Compound 10, 3′,9-Dipentanoate Concanamycin B]			5.8 fold	130 nM	35 nM
	C/C=C/[C@H]1O[C@@](O)([C@@H](C)[C@H](O)[C@H](C)[C@H]2OC(=O)/C(OC)=C/C(C)=C/[C@@H](C)[C@@H](O)[C@@H](C)[C@@H](O)[C@H](C)C/C(C)=C/C=C/[C@@H]2OC)C[C@@H](O[C@@H]2C[C@H](OC(=O)CCCCCCCC)[C@@H](OC(N)=O)[C@H](C)O2)[C@@H]1C [Compound 11, 3-nonanoate Concanamycin B]			4.3 fold	170 nM	36 nM
	C/C=C/[C@H]1O[C@@](O)([C@@H](C)[C@H](O)[C@H](C)[C@H]2OC(=O)/C(OC)=C/C(C)=C/[C@@H](C)[C@@H](O)[C@@H](C)[C@@H](O)[C@H](C)C/C(C)=C/C=C/[C@@H]2OC)C[C@@H](O[C@@H]2C[C@H](OC(C)=O)[C@@H](OC(N)=O)[C@H](C)O2)[C@@H]1C [Compound 12, 3′-Acetyl Concanamycin B]			8 fold and 8.0 fold	20 nM	5.3 nM
> 1000 nM	COc1cc2c(O)c3c(c(-c4ccc5c(c4)OCO5)c2cc1OC)C(=O)OC3 [Compound S1, Diphyllin, reference compound]		> 1000 nM			
	C=CC(C)C(OC(=O)[C@@H](C)[C@H](O)[C@H](C)[C@H]1OC(=O)/C(OC)=C/C(C)=C/[C@@H](C)[C@@H](O)[C@@H](C)C/C(C)=C/C=C/[C@@H]1OC)C(C)C (stereo partly drawn) [Compound S8]				> 1000 nM	520 nM
	CO/C1=C\C(C)=C\[C@@H](C)[C@@H](O)[C@@H](C)C/C(C)=C/C=C/[C@H](OC)[C@@H]([C@@H](C)[C@@H](O)[C@H](C)[C@@]2(O)C[C@@H](OC(=O)c3ccccc3)[C@H](C)[C@@H](C(C)C)O2)OC1=O [Compound S13]				140 nM	130 nM
> 1000 nM	CO[C@H]1/C=C/O[C@@]2(C)Oc3c(C)c(O)c4c(O)c(c(/C=N/N5CCN(C)CC5)c(O)c4c3C2=O)NC(=O)/C(C)=C\C=C\[C@H](C)[C@H](O)[C@@H](C)[C@@H](O)[C@@H](C)[C@H](OC(C)=O)[C@@H]1C [Compound S26, Rifampicin, reference compound]		> 1000 nM			
> 1000 nM	CCC1OC(=O)C(C)C(OC2OC(C)CC(N(C)C)C2O)C(C)CC(C)C(=O)C=CC1C (stereo not drawn) [Compound S30, YC-17, reference compound]		> 1000 nM			
> 1000 nM	CC[C@H]1OC(=O)[C@H](C)[C@@H](O[C@H]2C[C@@](C)(OC)[C@@H](O)[C@H](C)O2)[C@H](C)[C@@H](O[C@@H]2O[C@H](C)C[C@H](N(C)C)[C@H]2O)[C@](C)(O)C[C@@H](C)C(=O)[C@H](C)[C@@H](O)[C@H]1C [Compound S32, Erythromycin B, reference compound]		> 1000 nM			
> 1000 nM	CC[C@H]1OC(=O)[C@H](C)C(=O)[C@H](C)[C@@H](O[C@@H]2O[C@H](C)C[C@H](N(C)C)[C@H]2O)[C@@H](C)C[C@@H](C)C(=O)/C=C/[C@H]1C [Compound S33, Narbomycin, reference compound]		> 1000 nM			
	CC1=CC[C@H]2O[C@]1(C)O[C@H]([C@H](C)/C=C(C)/C=C/C(O)=C1/C(=O)CNC1=O)[C@H]2C [Tirandamycin C, reference compound]				> 1000 nM	> 1000 nM

Molecule	IC50 (V-ATPase; [1])	CC50 (primary CD4+ T cells)	CC50 at 72 h (in vitro)	Viability:Nef (therapeutic window separating Nef IC50 and TC50) (primary CD4+ T cells)	IC50 (V-ATPase)	CC50 (in vitro)
23-OH-tylactone [Compound S46, reference compound]	> 1000 nM	> 1000 nM				
C/C=C/[C@H]1O[C@@](O)([C@@H](C)[C@H](O)[C@H](C)[C@H]2OC(=O)/C(OC)=C/C(C)=C/[C@@H](C)[C@@H](O)[C@@H](CC)[C@@H](O)[C@H](C)C/C(C)=C/C=C/[C@@H]2OC)C[C@@H](O[C@H]2C[C@@H](O)[C@H](O)[C@@H](C)O2)[C@@H]1C [Compound 5, concanamycin C, reference compound]	3.7 nM	1.3 nM		2.3 fold		
Des-tylactone [Compound S47, reference compound]	> 1000 nM	> 1000 nM				
